Test results from US20250228239A1, “MOLECULES HAVING PESTICIDAL UTILITY, AND INTERMEDIATES, COMPOSITIONS, AND PROCESSES, RELATED THERETO” (priority 2024, published 2025).

Key:
Type in all cases: in vivo
[1] = test system: Yellow Fever Mosquito (Aedes aegypti, AEDSAE); settings: Yellow Fever Mosquito, Table ABC / ABC-DP rating
Method in brief: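 Mortality after 3 days at room temperature is the read-out, scored well by well and converted to a rating. Test molecules came from 4000 ppm stocks in DMSO, further diluted in 90:10 water/acetone, and were exposed to roughly 1-day-old larvae suspended in liver-powder water.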

[2] = test system: Beet Armyworm (Spodoptera exigua, LAPHEG); assay: Bioassays on Beet Armyworm (BAW), 128-well diet tray assay; settings: Spodoptera exigua; Beet Armyworm, Table ABC / ABC-DP rating; read-out: BAW rating
Method in brief: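 Larvae at second instar are exposed on dried, compound-treated diet (50 μg/cm^2, delivered in 90:10 acetone-water) in eight replicate wells. After five to seven days at 25° C., 14:10 light-dark, percent mortality in each well is scored and the eight wells averaged.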

[3] = test system: Cabbage Looper (Trichoplusia ni, TRIPNI); assay: Bioassays on Cabbage Looper (CL), 128-well diet tray assay; settings: Trichoplusia ni; Cabbage Looper, Table ABC / ABC-DP rating; read-out: CL rating
Method in brief: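 One to five second-instar larvae per well on artificial diet surface-treated with 50 μg/cm^2 test molecule (applied in 90:10 acetone-water, dried). Held 5–7 days at 25° C, 14:10 light-dark; percent mortality recorded per well and averaged over eight wells.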

SMILES | YFM rating [1] | pest or weed control at 50 µg/cm2 [2] [%] | pest or weed control at 50 µg/cm2 [3] [%]
CCNC(=O)c1cc(NC(=O)[C@H]2[C@H](c3ccc(F)c(Cl)c3)C2(Cl)Cl)cc(C)c1F (relative stereo) [F2029, trans-5-(2,2-Dichloro-3-(3-chloro-4-fluorophenyl)cyclopropane-1-carboxamido)-N-ethyl-2-fluoro-3-methylbenzamide] | A (80–100) | 50 to 100 | 50 to 100
Cc1cc(NC(=O)[C@H]2[C@H](c3ccc(F)c(Cl)c3)C2(Cl)Cl)cc(C(=O)NCC(F)(F)F)c1F (relative stereo) [F2030, trans-5-(2,2-Dichloro-3-(3-chloro-4-fluorophenyl)cyclopropane-1-carboxamido)-2-fluoro-3-methyl-N-(2,2,2-trifluoroethyl)benzamide] | A (80–100) | 50 to 100 | 50 to 100
Cc1cc(NC(=O)[C@H]2[C@H](c3ccc(F)c(Cl)c3)C2(Cl)Cl)cc(C(=O)NCC(F)(F)C(F)(F)F)c1F (relative stereo) [F2031, trans-5-(2,2-Dichloro-3-(3-chloro-4-fluorophenyl)cyclopropane-1-carboxamido)-2-fluoro-3-methyl-N-(2,2,3,3,3-pentafluoropropyl)benzamide] | A (80–100) | 50 to 100 | 50 to 100
Cc1cc(NC(=O)[C@H]2[C@H](c3ccc(F)c(Cl)c3)C2(Cl)Cl)cc(C(=O)NCCCCl)c1F (relative stereo) [F2032, trans-N-(3-Chloropropyl)-5-(2,2-dichloro-3-(3-chloro-4-fluorophenyl)-cyclopropane-1-carboxamido)-2-fluoro-3-methylbenzamide] | A (80–100) | 50 to 100 | 50 to 100
O=C(NCC(F)(F)C(F)(F)F)c1cc(NC(=O)[C@H]2[C@H](c3ccc(F)c(Cl)c3)C2(Cl)Cl)cc(F)c1Cl (relative stereo) [F2035, trans-2-Chloro-5-(2,2-dichloro-3-(3-chloro-4-fluorophenyl)cyclopropane-1-carboxamido)-3-fluoro-N-(2,2,3,3,3-pentafluoropropyl)benzamide] | A (80–100) | 50 to 100 | 50 to 100
O=C(NCCCCl)c1cc(NC(=O)[C@H]2[C@H](c3ccc(F)c(Cl)c3)C2(Cl)Cl)cc(F)c1Cl (relative stereo) [F2036, trans-2-Chloro-N-(3-chloropropyl)-5-(2,2-dichloro-3-(3-chloro-4-fluorophenyl)cyclopropane-1-carboxamido)-3-fluorobenzamide] | A (80–100) | 50 to 100 | 50 to 100
CCNC(=O)c1cc(NC(=O)[C@H]2[C@H](c3ccc(F)c(Cl)c3)C2(Cl)Cl)cc(C)c1Cl (relative stereo) [F2037, trans-2-Chloro-5-(2,2-dichloro-3-(3-chloro-4-fluorophenyl)cyclopropane-1-carboxamido)-N-ethyl-3-methylbenzamide] | A (80–100) | 50 to 100 | 50 to 100
Cc1cc(NC(=O)[C@H]2[C@H](c3ccc(F)c(Cl)c3)C2(Cl)Cl)cc(C(=O)NCC(F)(F)F)c1Cl (relative stereo) [F2038, trans-2-Chloro-5-(2,2-dichloro-3-(3-chloro-4-fluorophenyl)cyclopropane-1-carboxamido)-3-methyl-N-(2,2,2-trifluoroethyl)benzamide] | A (80–100) | 50 to 100 | 50 to 100
Cc1c(Cl)cc(NC(=O)[C@H]2[C@H](c3ccc(F)c(Cl)c3)C2(Cl)Cl)cc1C(=O)NCC(F)(F)C(F)(F)F (relative stereo) [F2043, trans-3-Chloro-5-(2,2-dichloro-3-(3-chloro-4-fluorophenyl)cyclopropane-1-carboxamido)-2-methyl-N-(2,2,3,3,3-pentafluoropropyl)benzamide] | A (80–100) | 50 to 100 | 50 to 100
Cc1c(Cl)cc(NC(=O)[C@H]2[C@H](c3ccc(F)c(Cl)c3)C2(Cl)Cl)cc1C(=O)NCCCCl (relative stereo) [F2044, trans-3-Chloro-N-(3-chloropropyl)-5-(2,2-dichloro-3-(3-chloro-4-fluorophenyl)cyclopropane-1-carboxamido)-2-methylbenzamide] | A (80–100) | 50 to 100 | 50 to 100
O=C(NCC(F)(F)F)c1cc(NC(=O)[C@H]2[C@H](c3ccc(F)c(Cl)c3)C2(Cl)Cl)cc(C(F)(F)F)c1Cl (relative stereo) [F2054, trans-2-Chloro-5-(2,2-dichloro-3-(3-chloro-4-fluorophenyl)cyclopropane-1-carboxamido)-N-(2,2,2-trifluoroethyl)-3-(trifluoromethyl)benzamide] | A (80–100) | 50 to 100 | 50 to 100
O=C(NCCC(F)(F)F)c1cc(NC(=O)[C@H]2[C@H](c3ccc(F)c(Cl)c3)C2(Cl)Cl)cc(C(F)(F)F)c1Cl (relative stereo) [F2055, trans-2-Chloro-5-(2,2-dichloro-3-(3-chloro-4-fluorophenyl)cyclopropane-1-carboxamido)-3-(trifluoromethyl)-N-(3,3,3-trifluoropropyl)benzamide] | A (80–100) | 50 to 100 | 50 to 100
O=C(NCC(F)(F)C(F)(F)F)c1cc(NC(=O)[C@H]2[C@H](c3ccc(F)c(Cl)c3)C2(Cl)Cl)cc(C(F)(F)F)c1Cl (relative stereo) [F2056, trans-2-Chloro-5-(2,2-dichloro-3-(3-chloro-4-fluorophenyl)cyclopropane-1-carboxamido)-N-(2,2,3,3,3-pentafluoropropyl)-3-(trifluoromethyl)benzamide] | A (80–100) | 50 to 100 | 50 to 100
COc1c(F)cc(NC(=O)[C@H]2[C@H](c3ccc(F)c(Cl)c3)C2(Cl)Cl)cc1C(=O)NCC(F)(F)F (relative stereo) [F2058, trans-5-(2,2-Dichloro-3-(3-chloro-4-fluorophenyl)cyclopropane-1-carboxamido)-3-fluoro-2-methoxy-N-(2,2,2-trifluoroethyl)benzamide] | A (80–100) | 50 to 100 | 50 to 100
COc1c(F)cc(NC(=O)[C@H]2[C@H](c3ccc(F)c(Cl)c3)C2(Cl)Cl)cc1C(=O)NCCC(F)(F)F (relative stereo) [F2059, trans-5-(2,2-Dichloro-3-(3-chloro-4-fluorophenyl)cyclopropane-1-carboxamido)-3-fluoro-2-methoxy-N-(3,3,3-trifluoropropyl)benzamide] | A (80–100) | 50 to 100 | 50 to 100
COc1c(F)cc(NC(=O)[C@H]2[C@H](c3ccc(F)c(Cl)c3)C2(Cl)Cl)cc1C(=O)NCC(F)(F)C(F)(F)F (relative stereo) [F2060, trans-5-(2,2-Dichloro-3-(3-chloro-4-fluorophenyl)cyclopropane-1-carboxamido)-3-fluoro-2-methoxy-N-(2,2,3,3,3-pentafluoropropyl)benzamide] | A (80–100) | 50 to 100 | 50 to 100
